# Experimental data as given in patent US20110150961A1, “ANTI-INFECTIVE CATHETERS” (priority 2008, published 2011).
# Where “and” joins values, the source holds several entries; their conditions need not be identical. Identical values can stand only once. Like-named read-outs stand apart in the source and are kept apart here.
# Assays:
# K. pneumonia ATCC 700603 = test: MIC and MBC on ATCC control strains (Example 10); format: cell-based, K. pneumoniae
# Description: (§1) The Gram-positive organisms tested were S. epidermidis ATCC 12228, S. aureus ATCC 25923, and E. faecalis ATCC 29212. The Gram-negative strains tested were P. aeruginosa ATCC 27853, K. pneumonia ATCC 700603 and E. coli ATCC 25922.
# [1] = test system: S. epidermidis and S. aureus
# Description: Microbial resistance is a concern associated with repeated exposure to anti-microbial agents.
# [2] = IV, cited from earlier work
# P. aeruginosa ATCC 27853 = test: MIC and MBC on ATCC control strains (Example 10); format: cell-based
# Description: as §1
# S. aureus ATCC 25923 = test: MIC and MBC on ATCC control strains (Example 10); format: cell-based
# Description: as §1
# E. faecalis ATCC 29212 = test: MIC and MBC on ATCC control strains (Example 10); format: cell-based
# Description: as §1
# [3] = test system: S. epidermidis ATCC 12228; test: MIC and MBC on ATCC control strains (Example 10); format: cell-based
# Description: as §1
# Gram-positive organisms = test: MIC testing by broth microdilution, summary (Example 4); format: cell-based; details: range over organisms
# Procedure: (§2) The Gram-positive organisms tested were S. epidermidis, methicillin resistant S. epidermidis (MRSE), S. aureus, methicillin resistant S. aureus (MRSA), E. faecalis and vancomycin resistant E. faecalis, the Gram-negative organisms tested were P. aeruginosa, E. coli and K. pneumoniae .
# (§3) For MIC testing, all isolates were tested against 5-FU by broth microdilution following CLSI methodology (M7-A7).
# Gram-negative isolates = test: as above; format: cell-based; details: range over organisms
# Procedure: as §2, §3
# P. aeruginosa [4] = test: Broth microdilution MIC and MBC (Example 9); format: cell-based
# Procedure: (§4) Minimal bactericidal concentrations (MBCs) were determined for bacterial isolates associated with catheter-related infections (Attachment 18.18). Broth microdilution MBCs were determined by first performing the standard broth microdilution technique to establish the 5-FU MIC for each organism (CLSI M7-A7). […] were sampled to determine the MBC as defined as the concentration at which a ≧99.9% reduction in the colony forming units relative to the starting inoculum concentration was achieved. When the MBC:MIC ratio for 5-FU was […].
# S. aureus [5] = test: Broth microdilution MIC and MBC (Example 9); format: cell-based
# Procedure: as §4
# K. pneumoniae [6] = test: Broth microdilution MIC and MBC (Example 9); format: cell-based
# Procedure: as §4
# S. epidermidis [7] = test: Broth microdilution MIC and MBC (Example 9); format: cell-based
# Procedure: as §4
# E. coli [8] = test: Broth microdilution MIC and MBC (Example 9); format: cell-based
# Procedure: as §4
# E. faecalis [9] = test: Broth microdilution MIC and MBC (Example 9); format: cell-based
# Procedure: as §4
# P. aeruginosa [10] = test: MIC testing by broth microdilution, clinical isolates (Example 4); format: cell-based; details: Pseudomonas aeruginosa, N=100
# Procedure: as §2, §3
# S. aureus [11] = test: as above; format: cell-based
# Procedure: as §2, §3
# K. pneumoniae [12] = test: as above; format: cell-based; details: Klebsiella pneumoniae, N=104
# Procedure: as §2, §3
# S. epidermidis [13] = test: as above; format: cell-based
# Procedure: as §2, §3
# E. coli [14] = test: as above; format: cell-based; details: Escherichia coli, N=102
# Procedure: as §2, §3
# E. faecalis [15] = test: as above; format: cell-based
# Procedure: as §2, §3
# mammalian species = mammalian species (PDR 1998); cited from earlier work
compound,measurement,setting,value
"O=c1[nH]cc(F)c(=O)[nH]1 [5-FU, 5-fluorouracil]",MBC,"K. pneumonia ATCC 700603; Klebsiella pneumoniae, ATCC700603, read-out: MBC",> 100 µg/mL
same,MIC,"K. pneumonia ATCC 700603; Klebsiella pneumoniae, ATCC700603, read-out: MIC",100 µg/mL
same,Historical 5-FU MIC values,[1],0.06 to 0.12 µg/mL
same,plasma levels,[2]; continuous infusion,about 10 μM
same,plasma concentrations,[2]; rapid infusion,0.1-1.0 mM and 13-130 μg/ml
same,MBC,"P. aeruginosa ATCC 27853; Pseudomonas aeruginosa, ATCC27853, read-out: MBC",> 100 µg/mL
same,MIC,"P. aeruginosa ATCC 27853; Pseudomonas aeruginosa, ATCC27853, read-out: MIC",> 100 µg/mL
same,MBC,"S. aureus ATCC 25923; Staphylococcus aureus, ATCC25923, read-out: MBC",1.23 µg/mL
same,MIC,"S. aureus ATCC 25923; Staphylococcus aureus, ATCC25923, read-out: MIC",1.23 µg/mL
same,MBC,"E. faecalis ATCC 29212; Enterococcus faecalis, ATCC29212, read-out: MBC",3.7 µg/mL
same,MIC,"E. faecalis ATCC 29212; Enterococcus faecalis, ATCC29212, read-out: MIC",3.7 µg/mL
same,MBC,"[3]; Staphylococcus epidermidis, ATCC12228, read-out: MBC",0.41 µg/mL
same,MIC,"[3]; Staphylococcus epidermidis, ATCC12228, read-out: MIC",0.14 µg/mL
same,MIC50,Gram-positive organisms,0.015 to 0.12 µg/mL
same,MIC50,Gram-negative isolates,16 to 128 µg/mL
same,MBC,"P. aeruginosa [4]; Pseudomonas aeruginosa, ≧99.9% reduction in CFU, read-out: MBC (all strains)",> 512 µg/mL
same,bactericidal activity,P. aeruginosa [4]; by MBC:MIC ratio,no bactericidal activity
same,MIC range,"S. aureus [5]; S. aureus, 11 strains",0.03 to 0.25 µg/mL
same,"bactericidal, number of strains","S. aureus [5]; S. aureus, by MBC:MIC ratio",4 of the 11
same,MBC range,"S. aureus [5]; S. aureus, ≧99.9% reduction in CFU",0.12 to 32 µg/mL
same,MIC,"S. aureus [5]; Staphylococcus aureus, methicillin resistant S. aureus, N=5, read-out: averaged MIC",0.12 µg/mL
same,MBC,"K. pneumoniae [6]; Klebsiella pneumoniae, ≧99.9% reduction in CFU, read-out: MBC (all strains)",> 512 µg/mL
same,bactericidal activity,K. pneumoniae [6]; by MBC:MIC ratio,no bactericidal activity
same,MIC range,"S. epidermidis [7]; S. epidermidis, 10 strains",0.03 to 0.25 µg/mL
same,"bactericidal, number of strains","S. epidermidis [7]; S. epidermidis, by MBC:MIC ratio",6 of the 11
same,MBC range,"S. epidermidis [7]; S. epidermidis, ≧99.9% reduction in CFU",0.03 to 0.25 µg/mL
same,MIC,"S. epidermidis [7]; Staphylococcus epidermidis, methicillin resistant S. epidermidis, N=8, read-out: averaged MIC",0.08 µg/mL
same,MIC range,E. coli [8]; 10 strains,0.25 to 64 µg/mL
same,"bactericidal, number of strains",E. coli [8]; by MBC:MIC ratio,1 of the 10
same,MIC range,E. faecalis [9]; 10 strains,0.008 to 0.12 µg/mL
same,"bactericidal, number of strains",E. faecalis [9]; by MBC:MIC ratio,8 of the 10
same,MBC range,E. faecalis [9]; ≧99.9% reduction in CFU,0.008 to 0.25 µg/mL
same,MIC50,P. aeruginosa [10],16 µg/mL
same,MIC90,P. aeruginosa [10],64 µg/mL
same,MIC50,"S. aureus [11]; Oxacillin-R, N=40",0.12 µg/mL
same,MIC50,"S. aureus [11]; Oxacillin-S, N=61",0.12 µg/mL
same,MIC90,"S. aureus [11]; Staphylococcus aureus, Oxacillin-R, N=40",0.12 µg/mL
same,MIC90,"S. aureus [11]; Staphylococcus aureus, Oxacillin-S, N=61",0.25 µg/mL
same,MIC90,"S. aureus [11]; Staphylococcus aureus, all, N=101",0.25 µg/mL
same,MIC50,"S. aureus [11]; Staphylococcus aureus, all, N=101, read-out: MIC50",0.12 µg/mL
same,MIC50,K. pneumoniae [12],128 µg/mL
same,MIC90,K. pneumoniae [12],> 512 µg/mL
same,MIC50,"S. epidermidis [13]; Oxacillin-R, N=78",0.06 µg/mL
same,MIC50,"S. epidermidis [13]; Oxacillin-S, N=22",0.06 µg/mL
same,MIC90,"S. epidermidis [13]; Staphylococcus epidermidis, Oxacillin-R, N=78",0.5 µg/mL
same,MIC90,"S. epidermidis [13]; Staphylococcus epidermidis, Oxacillin-S, N=22",0.12 µg/mL
same,MIC90,"S. epidermidis [13]; Staphylococcus epidermidis, all, N=100",0.25 µg/mL
same,MIC50,"S. epidermidis [13]; Staphylococcus epidermidis, all, N=100, read-out: MIC50",0.06 µg/mL
same,MIC50,E. coli [14],32 µg/mL
same,MIC90,E. coli [14],64 µg/mL
same,MIC50,"E. faecalis [15]; Enterococcus faecalis, all, N=101, read-out: MIC50",0.015 µg/mL
same,MIC90,"E. faecalis [15]; Enterococcus faecalis, all, N=101, read-out: MIC90",0.06 µg/mL
same,MIC50,"E. faecalis [15]; Vancomycin-R, N=21",0.015 µg/mL
same,MIC90,"E. faecalis [15]; Vancomycin-R, N=21",0.06 µg/mL
same,MIC50,"E. faecalis [15]; Vancomycin-S, N=80",0.015 µg/mL
same,MIC90,"E. faecalis [15]; Vancomycin-S, N=80",0.06 µg/mL
same,LD50,mammalian species,94 to 880 mg/kg
"O=c1[nH]c(=O)n([C@H]2C[C@H](O)[C@@H](CO)O2)cc1F [Flox, floxuridine]",MBC,K. pneumonia ATCC 700603,3.7 µg/mL
same,MIC,K. pneumonia ATCC 700603,1.23 µg/mL
same,MBC,P. aeruginosa ATCC 27853,>100 µg/mL
same,MIC,P. aeruginosa ATCC 27853,>100 µg/mL
same,MBC,S. aureus ATCC 25923,0.14 µg/mL
same,MIC,S. aureus ATCC 25923,<0.05 µg/mL
same,MBC,E. faecalis ATCC 29212,11.11 µg/mL
same,MIC,E. faecalis ATCC 29212,3.7 µg/mL
same,MBC,[3],<0.05 µg/mL
same,MIC,[3],<0.05 µg/mL
